Measurements from US20090036416A1, “Novel CXCR4 Antagonist and Use Thereof” (Kyoto University, priority 2005, published 2009).

How the values were obtained:
CXCR4 [1] = biological target: T1, CXCR4 (Homo sapiens, UniProt P61073); experiment: CXCR4 antagonistic activity: inhibition of Ca2+ movement induced by SDF-1a in CXCR4 transfected CHO cells (Fura-2); format: cell-based; conditions: for CXCR4 antagonistic activity (in words): comment in the text on Tables 1 to 3
Experimental: Various aromatic compounds each having a dipicolylamine-zinc complex were prepared, and their CXCR4 antagonistic effects were examined using the following method.
A CXCR4 transfected Chinese hamster ovary(CHO) cells (3×10^4 cell/100 μL/well) were plated in each well of a flat-bottomed micro-titer tray. The samples were incubated in a CO2 incubator at 37° C., and the cells were loaded in Ham F-12 buffer(80 μL/well) for an hour at 37° C., together with 5 μM Fura-2AM (Dojindo, Kumatomo, Japan), 2.5 mM Probenecid (Sigma) and 20 mM HEPES(pH7.4).
Thereafter, the cells were washed twice with Hank's balanced salt solution (100 μL×2), and placed in a spectrofluorimeter (96 well Fluorescence Drug Screening System, Hamamatsu Photonics K.K. Japan). 30 seconds after the measurement started, the cells were incubated in Hank's balanced salt solution with plural test compounds of different concentrations. After 3 minutes, recombinant SDF-1a (PreproTech, 30 nM/[…]/well) was added.
Changes of the CXCR4 transfect CHO cell system loaded with Fura2-A[Ca^2+], were recorded in real time with a modification method of Fura-2. The CXCR4 antagonistic effect was measured based on the inhibition of Ca^2+ movement induced by the stimulation of SDF-1a via CXCR4 (IC50).

CXCR4 [2] = biological target: T1, CXCR4; experiment: CXCR4 binding activity: inhibition of 125I-SDF-1a bonding to CXCR4 transfected CHO cells
Experimental: A CXCR4 transfected CHO cells suspended in Ham's F-12 buffer (0.5% bovine serum albumin, 20 mM HEPES buffer) were placed in a silicon-coated test tube (5×10^5 cells/120 μL/well). Cold SDF-1 a (Final concentration 0.1 μM, 15 μL/well) and a test object having one of various concentrations (15 μL/well) was added to the test tube. Thereafter, ^125I-SDF-1a (PerkinElmer, final concentration=0.1 nM, 15 μL/well) was added. The sample was incubated for an hour at 0° C., mixed with oil (dibutyl phthalate: olive oil=4:1(v/v), 500 μL/well), then centrifuged for 2 minutes at 14,000 rpm. After removing the water layer and the organic layer, the bottom part was separated from the test tube and was placed in a radioimmunoassay counting tube. Thereafter, count per minute (CPM) was measured with a γ-counter.
Inhibition rate (%)=(Et−Ea)/(Et−Ec)×100

HIV-1IIIB = conditions: read-out: EC50 (anti-HIV-1 activity); HIV-1IIIB infected MT-4 cells, virus number/cells number=0.01, five days, MTT viable cell count
Experimental: The method carries out measurement of anti-HIV-1 activity based on the inhibition effect with respect to cellular degeneration induced in the MT-4 cells by HIV-1.
MT-4 and MOLT-4 cells, human T-cell systems, are incubated in a RPMI1640 culture medium containing 10% heat-inactivated fetal bovine serum, 100 IU/mL of penicillin, and 100 mg/mL of streptomycin.
HIV-1IIIB, an X4-HIV-1-strain, was used as virus. The virus was obtained from a culture solution supernatant of MOLT-4/HIV-1IIIB cells persistently infected with HIV-1, and was kept at −80° C. before use.
Plural test compounds of different concentrations were individually added to HIV-1 infected MT-4 cells (virus number/cells number=0.01), and the samples were plated in the wells of a flat-bottomed micro-titer tray (1.5×10^4 cells/well). The samples were incubated in a CO2 incubator for five days at 37° C. A viable cell count was carried out (EC50) with an MTT method.

T1 sequence (P61073 whole entry): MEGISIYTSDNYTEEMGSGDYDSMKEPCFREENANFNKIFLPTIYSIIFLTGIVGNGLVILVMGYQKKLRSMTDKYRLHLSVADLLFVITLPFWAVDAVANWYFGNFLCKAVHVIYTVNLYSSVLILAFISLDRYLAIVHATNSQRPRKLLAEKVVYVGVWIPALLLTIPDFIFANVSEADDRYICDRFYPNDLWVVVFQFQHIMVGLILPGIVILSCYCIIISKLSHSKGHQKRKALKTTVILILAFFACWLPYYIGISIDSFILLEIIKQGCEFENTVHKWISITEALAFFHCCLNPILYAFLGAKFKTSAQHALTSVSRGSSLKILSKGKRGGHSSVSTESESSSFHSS

Row | Compound | IC50 (CXCR4 [1]) [nM] | further results
1 | 9,10-bis[(2,2′-dipicolylamino) methyl]anthracene/Zn complex [Example Compound 9] |  | CXCR4 antagonistic activity (in words) (CXCR4 [1]): high activity; IC50 (CXCR4 [1]; inhibition of Ca2+ movement induced by SDF-1a (30 nM) via CXCR4, CXCR4 transfected CHO cells): 240 nM
2 | c1ccc(CN(Cc2ccc(CN(Cc3ccccn3)Cc3ccccn3)cc2)Cc2ccccn2)nc1 [Comparative Example Compound A, reference compound] | > 10000 | 
3 | c1ccc(CN(Cc2ccc(-c3ccc(CN(Cc4ccccn4)Cc4ccccn4)cc3)cc2)Cc2ccccn2)nc1 [Comparative Example Compound B, reference compound] | > 10000 | 
4 | c1ccc(CN(Cc2cccc(-c3cccc(CN(Cc4ccccn4)Cc4ccccn4)c3)c2)Cc2ccccn2)nc1 [Example Compound 3] | 350 | 
5 | c1ccc(CN(Cc2ccnc(-c3cc(CN(Cc4ccccn4)Cc4ccccn4)ccn3)c2)Cc2ccccn2)nc1 [Example Compound 5] | 460 | 
6 | c1ccc(CN(Cc2ccccn2)Cc2c3ccccc3cc3ccccc23)nc1 [Example Compound 8] | 770 | 
7 | C[C@H](NC(=O)[C@H](CCCNC(=N)N)NC(=O)c1ccc(CNCc2ccccn2)cc1)c1cccc2ccccc12 [Reference Example Compound III, reference compound] | 240 | IC50 (CXCR4 [2]): 34 nM
8 | bis(2,2′-dipicolylamino)-p-xylene/zinc complex [Example Compound 1] |  | CXCR4 antagonistic activity (in words) (CXCR4 [1]): strong CXCR4 antagonistic activity; EC50 (HIV-1IIIB): 7100 nM; CXCR4 bonding activity (in words) (CXCR4 [2]; comment in the text on Table 4): comparative to that of Reference Example Compound III (KRH-1636)
